This passage reports melting point results from a melting point compilation (Tetko et al.; mined from patent text by program, amines drawn as free bases though some values may be those of a salt).

Take `CCCc1c(COc2ccc(C(=O)c3cccc(C#N)c3)cc2)ccc(C(C)=O)c1O`: the melting point (usually the temperature, or range, at which the solid turns liquid) was 146 to 148 °C.
`CCCN(C)C(C)CN1CCc2c(c(=O)oc3cc(OC)c(OC)cc23)C1` (stereo not drawn) gave a melting point of 81 to 85 °C.
As for `CCCc1c2nc(C(=O)OC)cc(Br)c2cc2c(=O)cc(C(=O)OCC)oc12`, the figure is 177 to 178 °C.
In the case of `COP(=O)(OC)C(O)=Cc1cccc(Cl)c1` it was 136 to 138 °C; in that of `O=C1c2ccccc2C(=O)N1OCc1cnoc1`, 133 to 135 °C; in that of `COc1ccc(S(=O)(=O)N2CCc3cccc(-c4ccc([N+](=O)[O-])cc4)c32)cc1`, 177 to 178 °C.
In the case of `CCCOc1ccccc1C=C(C=O)C(C=O)=Cc1ccccc1OCCC` it was 109 to 110 °C; in that of `CS(=O)(=O)c1ccc(-c2cc(-c3ccc(F)cc3)n3c2CCC3)cc1`, 176 to 179 °C; in that of `Cn1ccc2c3c(c(-c4ccccc4S(C)=O)cc21)C(=O)NC3=O` (stereo not drawn), 311 to 315 °C.
`O=CNCc1nc2ccccc2o1` came in with a melting point of 98 to 99 °C.
`CC(=O)NC(Oc1ccccc1)C(=O)NCc1ccccc1` (stereo not drawn) came in with a melting point of 125 to 128 °C.
As for `CCOC(C)=NNc1ccc([N+](=O)[O-])cc1`, the figure is 102 °C.
As for `CC(C)c1nn2ccccc2c1C=O`, the figure is 81 to 81.5 °C; as for `O=C1NC(=O)C(c2cc(F)cc(F)c2)(c2cc(F)cc(F)c2)N1`, 271 to 274 °C; as for `CC(C)(C(=O)O)c1ccc(CCN2CCC(c3nc4ccccc4n3CCO)CC2)cc1`, 218 °C.
As for `O=C(O)c1ccc2c(c1)C1(c3ccccc3-2)c2ccccc2-c2ccc(C(=O)O)cc21`, the figure is 352 °C.
Consider `COc1cc(C2CCC(c3cc(OC)c(OC)c(OC)c3)C2O)cc(OC)c1OC` (stereo not drawn), for which the melting point lay within 138 to 140 °C.
In the case of `CC(=O)Nc1ccc(Oc2ccccc2)c2c(=O)c3ccccc3n(C)c12` it was 252 to 254 °C; in that of `Cn1cc2c3c(c(F)cc2n1)CCC3=CC#N`, 249 to 252 °C; in that of `COc1ccc(C=C(C=O)C(C=O)=Cc2ccc(OC)cc2)cc1`, 207 °C.
As for `CCc1c(NC(=O)OC(C)(C)C)cccc1NC(=O)c1ccc(Br)cc1`, the figure is 181 to 183 °C.
`OCCOc1ccc(C2CNCCN2)cc1` (racemic) returned a melting point of 141 °C.
For `COC(=O)C(C)(C)CC(=O)CCc1ccc(Cl)cc1`, the melting point was in the range of 52 to 54 °C.
As for `CC(C)N1CCc2[nH]c3ccc4scc(-c5ccccc5)c4c3c2C1`, the figure is 204 °C; as for `COc1cc(C=C(C#N)C(=O)Nc2cccc(Cl)c2)cc(Br)c1O`, 217 to 219 °C; as for `FC(F)(F)c1ccc2nc[nH]c2c1`, 89 to 91 °C.
For the compound `CN1CCCN(c2ccc3nc4c(n3n2)CCCC4)CC1`, the melting point fell in the range of 106 to 107 °C.
In the case of `O=C(CCNc1c(C(=O)O)[nH]c2cc(Cl)cc(Cl)c12)c1ccccc1Cc1ccccc1` it was 280 to 283 °C; in that of `N#CCC(=O)Cc1cccc(C(F)(F)F)c1`, 82 to 83 °C.
As for `CC(=O)NCCCn1c(-c2ccc(Br)cc2)csc1=Nc1ccccc1`, the figure is 155 to 157 °C; as for `O=C(c1ccc(-n2cccn2)nc1Cl)N1Cc2cccn2Cc2ccccc21`, 133 to 135 °C; as for `O=C1CNc2cc([N+](=O)[O-])c(F)cc2O1`, 196 to 202 °C.
As for `COc1ccc(/C(=C/c2ccncc2)c2ccco2)cc1OC1CCCC1`, the figure is 122 to 123 °C; as for `Nc1c(-c2cc(Cl)ccc2O)c2ccc(C(F)(F)F)cc2[nH]c1=O`, 225 to 227 °C; as for `Clc1ccc(-c2nsc3cc(OCCCCBr)ccc23)cc1`, 68 to 69 °C.
`Cc1nc(COc2ccc3c(c2)c(SC(C)(C)C)c(CC(C)(C)C(=O)O)n3Cc2ccc(Cl)cc2)cs1` registered a melting point of 196 to 198 °C.
As for `FC(F)(F)C1(c2cc(Cl)cc(Cl)c2)CC(c2ccc(-n3cccc3)cc2)=NO1` (stereo not drawn), the figure is 206 to 208 °C; as for `Fc1cc(Cl)ccc1-n1nn[nH]c1=S`, 128 °C; as for `Cn1nc(-c2ccc(F)cc2)c(-c2ccncc2)c1Br`, 174 °C.
As for `COC(=O)COc1ccc(C(=O)CN2CCN(c3ccncc3)CC2)cc1`, the figure is 150 to 152 °C; as for `Cn1cc(-c2ncc(-c3ccc4cc(O)ccc4c3)o2)c2ccccc21`, 188 to 190 °C.
For the compound `CC(C)CNCc1ccc(S(=O)(=O)c2ccc(S(N)(=O)=O)s2)cc1`, the melting point was 198 to 200 °C.
For the compound `CCC1(C)Cc2c(C)c(N3CCN(c4ccc(OC)cc4)CC3)c(C)c(C)c2O1` (stereo not drawn), the melting point was in the range of 106 to 110 °C.
As for `Nc1ncnc2[nH]cc(-c3ccc(Oc4ccccc4)cc3)c12`, the melting point was found to be 272 °C.
`C[C@H]1C(=O)C[C@@H]2C[C@H]1OO[C@]2(C)/C=C\c1ccc(C(F)(F)F)cc1C(F)(F)F` came in with a melting point of 124 °C.
In the case of `O=C(O)[C@H](Cc1ccccc1)C[C@@H](Cc1ccccc1)C(=O)O` it was 150 to 152 °C.
In the case of `O=C1CC(=Cc2cccc3ccccc23)C(=O)O1` it was 162 to 164 °C; in that of `CCc1ccc2c(c1)C1CN(CCCC(=O)c3ccc(F)cc3)CCC1N2` (stereo not drawn), 192 to 195 °C; in that of `O=c1c2c(nc3ccc(Cl)cn13)CCC2`, 146 to 147 °C.
As for `COc1ccc(CNc2nc(N3CCC[C@H]3CO)ncc2C(=O)NCc2ncccn2)cc1Cl`, the figure is 160 to 163 °C.
Consider `COc1ccccc1C(=O)N(c1ccccc1)c1ccc(OCCN(C)C)cc1`, for which the melting point was 82.5 to 85.5 °C.
In the case of `Cc1ccc(OC(C(=O)OC2CC(O)C=C3C=CC(C)C(CCC4CC(O)CC(=O)O4)C32)c2ccccc2)cc1` (mixture of isomers) it was 130 to 133 °C.
As for `CNC(=O)C(=NOC)c1ccccc1COc1ncc(C)cc1Br`, the figure is 104 to 105 °C; as for `N#CCc1cccc(C#CCOc2ccc(Br)cn2)c1`, 121 to 123 °C.
As for `CC(=O)OC1NC(=O)C2=C1c1ccc(Cl)cc1C(c1ccccc1Cl)=NC2` (stereo not drawn), the figure is 219 to 221 °C.
`CCOC(=O)C1=Cc2cc(Cl)cc(C#CCCCCl)c2OC1C(F)(F)F` (stereo not drawn) displayed a melting point of 84.8 to 85.9 °C.
As for `CCOc1cccc(-c2nc3n(n2)CCc2ccccc2-3)c1`, the figure is 102 to 103 °C; as for `O=C(Nc1ccc(Cc2nnn[nH]2)cc1)C(F)(F)C(F)(F)F`, 183 to 185 °C.
In the case of `CCCCCCCCCCCCCCCCCCOc1cc(NC(=O)OC(C)(C)C)cc([N+](=O)[O-])c1` it was 70 to 72 °C; in that of `COc1ccc(CCCC(=O)O)c(Cl)c1Cl`, 120 to 123 °C; in that of `COc1c(C=Cc2ccc(C=CC3=C(C#N)C(=C(C#N)C#N)OC3(C)C(F)(F)F)s2)cc2c3c1CCCN3CCC2` (stereo not drawn), 159 to 161 °C.
As for `Cc1nc2cc(N(C)C(=O)c3ccc(Cl)cc3Cl)ccc2n1C`, the figure is 245 to 247 °C; as for `CCCOc1ccccc1C(=O)Nc1ccncc1C(N)=O`, 135 to 136 °C; as for `CN(Cc1ccc(NC(=O)C2=Cc3cc(-c4ccc(OCC(=O)OC(C)(C)C)cc4)ccc3S(=O)(=O)CC2)cc1)C1CCOCC1`, 209 to 211 °C.
`CC(C)(NS(=O)(=O)c1ccc(-c2ccccn2)s1)C(=O)NO` gave a melting point of 165 to 166 °C.
As for `O=C1CCn2c(CCc3ccccc3)nc3cccc1c32`, the figure is 112 to 113 °C.
In the case of `OCc1cccc2c(Br)c3ccccc3cc12` it was 125 to 127 °C.
In the case of `NC(=S)N1CCC(=O)C(C(c2ccccc2)c2ccccc2)C1` (stereo not drawn) it was 107 °C; in that of `COc1ccccc1OCC1SCCN1C(=S)CC(C)=O` (stereo not drawn), 89 to 91 °C; in that of `CC(=O)Nc1ccc(C#Cc2ccc(N3CC4CCC(C3)N4C)nn2)cc1`, 292 °C.
As to `CC(C)c1ccc(NC(=O)OC(C)(C)C)c(NC(=O)CC(=O)c2ccnc(C#N)c2)c1`, the melting point lay within 163 to 165 °C.
For `Cc1c(C(=O)Nc2cccc(C#N)c2N2CCC(N3CCOCC3)CC2)cnn1-c1ccc([N+](=O)[O-])cc1`, the melting point was 265 °C.
In the case of `COc1cc(OC)nc(NC(=O)NS(=O)(=O)c2c(Cl)cccc2CN2CCOC2=O)n1` it was 135 to 136 °C; in that of `Cc1c(C(N)=O)oc2nn(C)c(C)c12`, 148 to 150 °C; in that of `CC(=O)c1ccnc(N(C)C)c1`, 37 to 42 °C.
As for `CCCC(=O)SC1CCN(C(C(=O)C2CC2)c2ccccc2F)CC1` (stereo not drawn), the figure is 97 to 98 °C.
As for `COC1=C(OC)C(=O)NC1=O`, the melting point fell in the range of 126 to 127 °C.
As for `O=C1NC(=O)C(=Cc2ccc(OCCN3C(=O)SC(c4ccccc4)C3=O)cc2)S1` (stereo not drawn), the figure is 120 °C; as for `Cn1nc(-c2cc(F)c([N+](=O)[O-])cc2F)cc1C(F)(F)F`, 80 to 81 °C.
In the case of `O=C1NCC2(CCN(C(=O)OCc3ccccc3)CC2)O1` it was 126 to 128 °C; in that of `CCCCCCCCCCCCCCCCCCSSSSCCCCCCCCCCCCCCCCCC`, 44 to 45 °C.
In the case of `Cc1ccc(-c2csc(NS(=O)(=O)c3ccc(C)cc3)n2)cc1` it was 186 to 189 °C.
For the compound `CC(C)(C)OC(=O)[C@H]1CC[C@@H](c2ccccc2)N1C(=O)CNC(=O)Nc1ccc(O)c(C(=O)O)c1` (racemic), the melting point amounted to 190 °C.
As for `Nc1sc2c(c1C(=O)c1ccc3c(c1)Cc1ccccc1-3)CCC2`, the melting point was in the range of 176 to 182 °C.
In the case of `CCCC[C@H](NC(=O)[C@H](CC(C)C)NC(=O)c1c(F)ccc(F)c1F)C(=O)CSCc1ccco1` it was 116 to 117 °C.
Regarding `Cc1cc(CN2C(=O)C(C3=NS(=O)(=O)c4c(CN(C)S(C)(=O)=O)cccc43)=C(O)C2C(C)(C)C)ccc1F` (stereo not drawn), the melting point is 105 to 109 °C.
As for `COc1ccc(CC2CCN(CCS(=O)c3ccc4[nH]c(=O)oc4c3)CC2)cc1` (stereo not drawn), the melting point lay within 169 to 170 °C.
Regarding `CCCCCCCc1ccc(-c2ncc(C#N)c(Cl)n2)cc1`, the melting point was 76.3 to 76.8 °C.
